# Test results reported in US10722491B2, “Phenol compound and combination of same with a benzodiazepine fused to 1,4-dihydropyridine for treating diseases of the central nervous and vascular systems” (UNIVERSIDAD DE LA HABANA, priority 2016, dated 2020).
# Assays:
# [1] = test system: rat brain homogenate; test: Spontaneous or Fe3+/AA-induced lipid peroxidation (POL) in rat brain homogenate; assay type: biochemical; conditions: 37° C 1 hour, MDA
# Description: FIG. 5. Effects of KM-34 (0.01-100 μM) on spontaneous lipid peroxidation and e induced by 100 mM FeCl3 and 100 mM AA. The control contains absolute ethanol instead of KM-34. The samples were incubated at 37° C for 1 hour and then the MDA levels were quantified by thiobarbituric acid (ATB) and the absorbance was determined at 532 nm. Values are expressed as the mean ± SD (n=3). *P<0.05 with respect to the control.
# The brain homegenate is rich in phospholipids, which undergo spontaneous or induced autoxidation by the presence of FeCl3 and AA, where the latter is oxidized at the expense of the metal being reduced and thus the ion is available to catalyze the Fenton-Habber reaction-Weiss (Hiroi et al., 2005; Kooncumchoo, 2005).
# [2] = test system: animals damaged with 6-OHDA; test: 6-OHDA Parkinson's model, vertical exploratory activity; assay type: in vivo, rats
# [3] = Spectrophotometric evidence of interactions between KM-34 and Fe2+; assay type: physicochemical; conditions: 100 μM KM-34; FeCl2 50, 100 and 200 μM; pH 7.4
# Description: FIG. 4. Maximum absorption data on UV-VIS (200-500 nm) of the 100 μM KM-34 in a mixture of 10 mM phosphate buffer (KH2PO4/ KOH) pH 7.4 and absolute ethanol 14:1 (v:v) and The absorbance in the presence of FeCl2 (50, 100 and 200 μM) dissolved in 10mM HCL.
# In order to verify the existence of possible interactions between KM-34 and Fe2+ (through modifications in their spectra), the following results were obtained:
# This could indicate possible interactions between Fe2+ and KM-34 where the ion is stabilized at Fe3+ by unsaturated ligands due to the stabilization of the larger crystalline field from an electron configuration d6 (Fe2+) to a d5 (Fe3+) (Hider et al., 1981, Hider et al., 1983). This justifies the response obtained in the oxidative degradation test of DR where it was observed that the KM-34 in these conditions seems to act more as a coordinator of Fe2+ than as a .OH scavenger.
# [4] = test system: occlusion of the middle cerebral artery in rats; test: Transient middle cerebral artery occlusion, neurological deficit score; assay type: in vivo; conditions: 0.5 and 1 mg/kg oral, 1 hour after reperfusion
# Description: FIG. 13. Acute treatment with KM-34 reduced the volume of infarction edema and deficit in rat behavior after 90 min of middle cerebral artery occlusion (MACA) and 23 hours of reperfusion. The different doses of the compound were administered orally 1 hour after reperfusion. (A) Representative brain coronal sections (2 mm thick) of the sham and ischemic groups treated with vehicle or KM-34 (0.1, 0.5 or 1 mg/kg) and stained with 2,3,5-triphenyltetrazolium (TTC) 2%. The red regions correspond to undamaged tissue and white to ischemic regions. (B) Quantitative analysis of cortical, subcortical and total lesion size. (C) Neurological deficit. The bars represent the mean ± SEM (n=8). Different letters in (A) and * in (B): p<0.05, by ANOVA and post hoc of Newman-Keuls. Scale=10 mm. […]
# Transient cerebral ischemia was performed by the OACM, using the intraluminal filament method. […] After 23 hours of reperfusion, the neurological deficit was evaluated and the animals sacrificed to determine the infarct volume and perform the behavioral evaluations.
# Neurological deficit was assessed according to a six-point scale: 0=no observable neurological deficit; 1=no extension of the left front leg; 2=shifts in circles to the left if the animal is suspended by the tail; 3=spontaneous displacements in circles to the left; 4=no spontaneous motor activity with decreased level of consciousness; 5=death.
smiles,measurement,setting,value
"CC1(C)OC(=O)C(=Cc2ccc(O)c(O)c2)C(=O)O1 [KM-34, 5-[(3,4-dihydroxyphenyl)methylidene]-2,2-dimethyl-1,3-dioxane-4,6-dione]",Concentration significantly inhibiting Fe3+/AA-induced POL,[1]; induced by FeCl3 and AA,> 10 µM
same,Concentration significantly inhibiting spontaneous POL,[1]; spontaneous lipid peroxidation,higher than 0.1 μM
same,Vertical exploratory behavior,"[2]; 0.5 and 1 mg doses, vs damaged animals",did not show statistically significant differences
same,Vertical exploratory behavior,[2]; maximum dose 2 mg/Kg,statistically significant differences with respect to damaged animals
same,"Absorbance of KM-34 at absorption maxima 262, 345 and 472 nm in presence of Fe2+",[3],is modified as the concentration of the ferrous ion increases
same,Neurological deficit (neurological score),[4],significantly improved (p<0.05) the neurological deficit
